In patent US20260199371A1, “COORDINATION COMPOUND, COMPOSITIONS, AND USES THEREOF FOR TREATING CANCERS” (HUEIYUAN BIOTECH LLC, priority 2023, published 2026):

Assays:
BEAS-2B cells = conditions: 0-800 μg/ml, 24 hours
Procedure: (§1) BEAS-2B cells (95102433, Sigma-Aldrich) were cultured in LHC-9 medium (Gibco™, Thermo Fisher Scientific, Waltham, MA, USA).

[1] = test system: gemcitabine-resistant CL1 cells (CL1-GEMR cells); conditions: 0-1600 μg/ml, 24 hours
Procedure: as §1

[2] = test system: ER stress markers in LoVo-OXAR cells; conditions: 2000 μg/ml, 24 hours
Procedure: (§2) Western blot analysis was conducted using primary antibodies against protein kinase RNA-like endoplasmic reticulum kinase (PERK), phosphorylated PERK (p-PERK), alpha subunit of eukaryotic translation initiation factor 2 (eIF2α), phosphorylated eIF2α (p-eIF2α), activating transcription factor 4 (ATF4), proliferating cell nuclear antigen (PCNA), glyceraldehyde 3-phosphate dehydrogenase (GAPDH), and caspase 3 (San-ta Cruz Biotechnology Inc. Santa Cruz, California, USA). GAPDH was used as an internal control for the normalization of protein expression. […] Phosphorylated eIF2α has been known to inhibit the synthesis of various proteins participating in tumorigenesis.

[3] = test system: ER stress markers in LoVo-parental cells; conditions: 500 μg/ml, 24 hours
Procedure: as §2

[4] = test system: EMT markers in LoVo-OXAR cells; conditions: western blot, 24 hours
Description: (§3) Vimentin and E-cadherin are molecular markers linked to tumor progression through their roles in EMT, which is a pathological process contributing to migration and invasion of cancer cells and tumor progression. Vimentin is a key component of intermediate filaments, which helps maintain cellular integrity and resistance to stress. E-cadherin plays a role in maintaining epithelial phenotypes by mediating contact inhibition when cells proliferate and reach confluence. To further investigate the influence of the compound (II) on EMT marker expression, western blotting, immunofluorescence detection, and quantitative real-time reverse transcription polymerase chain reaction (qRT-PCR) were performed in LoVo-parental and LoVo-OXAR cells treated with various doses of the compound (II) for 24 hours.
(§4) The cells after the indicated treatments were harvested and subject to western blot analysis using primary antibodies against vimentin, E-cadherin, and GAPDH (San-ta Cruz Biotechnology Inc. Santa Cruz, California, USA). GAPDH was used as an internal control.

[5] = test system: EMT markers in LoVo-parental cells; conditions: western blot, 24 hours
Description: as §3, §4

[6] = test system: LoVo-OXAR cells tumor xenograft
Procedure: (§5) Six-week-old male NU/NU mice were purchased from Bio LASCO Taiwan Co., Ltd (Taipei, Taiwan) and randomly assigned into four groups (Groups 1 to 4), each containing three mice. […] Tumor volume and mice body weight were measured every three days. […] All mice were sacrificed on day 21, and the tumors were excised and weighed.
(§6) Moreover, the LoVo-parental and LoVo-OXAR tumor tissues were collected and subject to TUNEL assay.

[7] = test system: LoVo-parental cells tumor xenograft
Procedure: as §5, §6

143B cells [8] = test: MTT assay, viability of 143B cells; assay type: cell-based, human; conditions: 24 hours
Procedure: Human osteosarcoma 143B cells (commercially available from ATCC under the number CRL-8303) were cultured in DMEM supplemented with 10% FBS and 1% sodium pyruvate.

143B cells [9] = conditions: Transwell migration
Procedure: (§7) Transwell migration assay, as described in Example 5.1, was performed on 143B cells to investigate how the compound (II) would affect the migration ability of bone cancer cells.

[10] = test system: EMT markers in 143B cells; conditions: western blot
Procedure: as §7

CP70 cells = conditions: 0-1600 μg/ml, 24 hours
Jurkat cells = conditions: 0-1600 μg/ml, 24 hours
Procedure: Human T-acute lymphoblastic leukemia Jurkat cells (resistant to cisplatin and commercially available from ATCC under the number TIB-512) were cultured in RPMI 1640 medium supplemented with 10% FBS.

MIA PaCa-2 cells = conditions: six days
Procedure: (§8) Human pancreatic carcinoma MIA PaCa-2 cells (commercially available from ATCC under the number CRL-1420) were cultured in DMEM supplemented with 10% FBS, 1 mM sodium pyruvate, and 2.5% horse serum. Human pancreatic epithelioid carcinoma PANC-1 cells (commercially available from ATCC under the number CRL-1469) were cultured in DMEM supplemented with 10% FBS and 1 mM sodium pyruvate.

PANC-1 cells = conditions: six days
Procedure: as §8

LoVo-OXAR cells [11] = conditions: 24 hours
LoVo-parental cells [12] = conditions: single agent: compound (II) 500 μg/ml or oxaliplatin 50 μg/ml, 48 hours
LoVo-OXAR cells [13] = conditions: single agent: compound (II) 2000 μg/ml or oxaliplatin 50 μg/ml, 48 hours
LoVo-parental cells [14] = conditions: single agent: compound (II) 500 μg/ml or oxaliplatin 50 μg/ml, 72 hours
[15] = test system: PANC-1 cells tumor xenograft; test: Subcutaneous PANC-1 tumor xenograft in C.B17/SCID mice; conditions: for Change in body weight / TGI (%): oral; for TGI (%): 14 days, read 14 days after the treatment period
[16] = Group 5: 150 mg/kg, twice a day

In the case of `CC(=O)[O-].CC(=O)[O-].CC(=O)[O-].CC(=O)[O-].CC(=O)[O-].CC(=O)[O-].O.O.O.O.O=[N+]([O-])[O-].[Cr+3].[Fe+3].[Fe+3].[OH-].[OH-]` [compound (II)], the “survival of non-tumorigenic BEAS-2B cells” value (BEAS-2B cells) is reported as “did not significantly inhibit the survival of BEAS-2B cells”, the “viability of gemcitabine-resistant CL1 cells” value [1] is reported as “reduced the viability of both lung cancer cells in a dose-dependent manner” and the “eIF2α levels in LoVo-OXAR cells” value ([2]; western blot) is reported as “decreased”. For the same compound, the “phosphorylation of eIF2α in LoVo-OXAR cells” value ([2]; western blot) was “increased”, the caspase-3 cleavage ([2]; LoVo-OXAR cells) was “activates caspase-3 cleavage” and the “expression of ER stress markers, including PERK, p-eIF2α, and ATF4” value ([2]; LoVo-OXAR cells) was “enhancing the expression of ER stress markers”. The caspase-3 cleavage [3] was “activates caspase-3 cleavage”, the “expression of ER stress markers, including PERK, p-eIF2α, and ATF4” value [3] was “enhancing the expression of ER stress markers” and the “protein expression of E-cadherin” value [4] was “increased”. For the same compound, the “protein expression of vimentin” value [4] was “significantly reduced”, the “protein expression of E-cadherin” value [5] was “increased” and the “protein expression of vimentin” value [5] was “significantly reduced”. For the same compound, the “apoptosis in tumors (TUNEL)” value ([6]; LoVo-OXAR tumors) was “induced significantly higher apoptosis”, the “health of mice after treatment” value ([6]; LoVo-OXAR xenograft, 100 mg/kg orally every three days) was “healthy” and the tumor growth ([6]; LoVo-OXAR xenograft, 100 mg/kg orally every three days, about three weeks) was “significantly reduced the tumor growth”. The “body weight of the mice” value ([6]; LoVo-OXAR xenograft, day 1 to day 21, loss attributed to the tumor) was “body weight loss”, the “apoptosis in tumors (TUNEL)” value ([7]; LoVo-parental tumors) was “induced significantly higher apoptosis” and the “health of mice after treatment” value ([7]; LoVo-parental xenograft, 100 mg/kg orally every three days) was “healthy”. For the same compound, the tumor growth ([7]; LoVo-parental xenograft, 100 mg/kg orally every three days, about three weeks) was “significantly reduced the tumor growth”, the “body weight of the mice” value ([7]; LoVo-parental xenograft, day 1 to day 21) was “remained constant” and the “viability of 143B cells” value (143B cells [8]; 0-4000 μg/ml) was “reduced the viability of the osteosarcoma cells in a dose-dependent manner”. The “IC50 against 143B cells” value (143B cells [8]; MTT) was “approximately 500 μg/ml”, the “crawling (migration) of 143B cells” value (143B cells [9]) was “inhibited by the compound (II) in a dose-dependent manner” and the E-cadherin expression [10] was “increasing”. For the same compound, the vimentin expression [10] was “significantly decreased”, the “viability of CP70 cells” value (CP70 cells) was “reduced the viability of the ovarian cancer cells in a dose-dependent manner” and the “viability of Jurkat cells” value (Jurkat cells) was “reduced the viability of the Jurkat cells in a dose-dependent manner”. The “viability of MIA PaCa-2 cells” value (MIA PaCa-2 cells; 0-2000 μg/ml) was “reduced the viability of both pancreatic cancer cells in a dose-dependent manner”, the “IC50 against MIA PaCa-2 cells” value (MIA PaCa-2 cells; MTT) was “approximately 660 μg/ml” and the “viability of PANC-1 cells” value (PANC-1 cells; 0-2000 μg/ml) was “reduced the viability of both pancreatic cancer cells in a dose-dependent manner”. For the same compound, the “IC50 against PANC-1 cells” value (PANC-1 cells; MTT) was ~1700 µg/mL, the “viability of LoVo-OXAR cells” value (LoVo-OXAR cells [11]; 0-4000 μg/ml) was “reduced the viability of both colorectal cancer cells in a dose-dependent manner” and the “IC50 against LoVo-OXAR cells” value (LoVo-OXAR cells [11]; MTT) was “about 2000 μg/ml”. For the same compound, the “migration rate of LoVo-parental cells” value (LoVo-parental cells [12]) was “significantly decreased”, the “migration rate of LoVo-OXAR cells” value (LoVo-OXAR cells [13]) was “significantly decreased” and the “invasion rate of LoVo-parental cells” value (LoVo-parental cells [14]) was “significantly decreased”. For the same compound, the “Change in body weight” value ([15]; Group 3: 100 mg/kg, once a day) was 107 ± 5%, the “TGI (%)” value ([15]; Group 3: 100 mg/kg, once a day) was 51 ± 8% and the “Change in body weight” value ([15]; Group 4: 150 mg/kg, once a day) was 102 ± 3%. The “TGI (%)” value ([15]; Group 4: 150 mg/kg, once a day) was 51 ± 6%, the “Change in body weight” value [15, 16] was 103 ± 4% and the “TGI (%)” value [15, 16] was 88 ± 6%. For the same compound, the “toxicity to mice at a therapeutically effective dose” value ([15]; Groups 3-5) was “not toxic to mice” and the “body weight of the mice” value ([15]; Groups 3-5, FIG. 20B) was “remained constant”.
